Test results as given in the supplement of paper PMC6045584.
± gives the standard deviation of the averaged measurements.

Assays:
DOXORUBICIN = compound: COc1cccc2c1C(=O)c1c(O)c3c(c(O)c1C2=O)C[C@@](O)(C(=O)CO)C[C@@H]3O[C@H]1C[C@H](N)[C@H](O)[C@H](C)O1 [DOXORUBICIN]; assay: surviving fraction relative to DMSO-only wells; higher = less growth inhibition; settings: exposure time: 5 days
How it was run: (§1)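 Viability was determined by CellTiter-Glo luminescence, expressed as surviving fraction normalised to the median of DMSO-only wells. The cells were log-phase tumour cell lines seeded at 250–500 per well in 384-well plates and, after 24 hours, exposed continuously for five days to inhibitors at 0.5, 1, 5, 10, 50, 100, 500 and 1000 nM. Three screens per line were run, keeping only lines with replicate Pearson r >0.7 and median Z' >0.3.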

FLAVOPIRIDOL = compound: CN1CC[C@H](c2c(O)cc(O)c3c(=O)cc(-c4ccccc4Cl)oc23)[C@H](O)C1 [FLAVOPIRIDOL]; assay: as above; settings: exposure time: 5 days
How it was run: as §1

Test System	surviving fraction (DOXORUBICIN; 0.5 nM)	surviving fraction (DOXORUBICIN; 1 nM)	surviving fraction (DOXORUBICIN; 5 nM)	surviving fraction (DOXORUBICIN; 10 nM)	surviving fraction (DOXORUBICIN; 50 nM)	surviving fraction (DOXORUBICIN; 100 nM)	surviving fraction (DOXORUBICIN; 500 nM)	surviving fraction (DOXORUBICIN; 1000 nM)	surviving fraction (FLAVOPIRIDOL; 0.5 nM)	surviving fraction (FLAVOPIRIDOL; 1 nM)	surviving fraction (FLAVOPIRIDOL; 5 nM)	surviving fraction (FLAVOPIRIDOL; 10 nM)	surviving fraction (FLAVOPIRIDOL; 50 nM)	surviving fraction (FLAVOPIRIDOL; 100 nM)	surviving fraction (FLAVOPIRIDOL; 500 nM)	surviving fraction (FLAVOPIRIDOL; 1000 nM)
SCC90 HEADNECK	0.967 ± 0.034	0.956 ± 0.046	0.954 ± 0.029	1.06 ± 0.1	0.711 ± 0.12	0.571 ± 0.072	0.11 ± 0.033	0.0687 ± 0.0095	1.07 ± 0.099	1.08 ± 0.072	1.12 ± 0.085	1.07 ± 0.12	0.834 ± 0.079	0.378 ± 0.086	0.0317 ± 0.0057	0.027 ± 0.002
93VU HEADNECK	1.03 ± 0.063	1.08 ± 0.11	1.12 ± 0.085	1.09 ± 0.06	0.697 ± 0.049	0.525 ± 0.046	0.249 ± 0.034	0.109 ± 0.016	1.04 ± 0.088	1.03 ± 0.012	1.19 ± 0.066	1.12 ± 0.11	0.82 ± 0.011	0.0713 ± 0.0035	0.0237 ± 0.0015	0.0217 ± 0.0015
MDAMB436 BREAST	0.895 ± 0.077	0.905 ± 0.069	0.822 ± 0.12	0.783 ± 0.026	0.484 ± 0.036	0.423 ± 0.049	0.297 ± 0.016	0.269 ± 0.031	0.998 ± 0.042	0.991 ± 0.071	1.06 ± 0.14	0.941 ± 0.036	0.556 ± 0.026	0.183 ± 0.024	0.185 ± 0.0025	0.182 ± 0.0028
LNCAP PROSTATE	0.973 ± 0.018	0.863 ± 0.076	0.483 ± 0.075	0.33 ± 0.029	0.124 ± 0.013	0.0727 ± 0.01	0.024 ± 0.0017	0.0247 ± 0.0011	0.884 ± 0.014	0.917 ± 0.0082	0.849 ± 0.038	0.84 ± 0.015	0.409 ± 0.071	0.028 ± 0.0036	0.043 ± 0.0027	0.0397 ± 0.0011
MHM BONE	0.992 ± 0.027	1.03 ± 0.016	1.008 ± 0.009	1.005 ± 0.0081	0.841 ± 0.029	0.792 ± 0.02	0.296 ± 0.031	0.16 ± 0.019	1.02 ± 0.036	1.04 ± 0.035	1.06 ± 0.024	1.11 ± 0.025	1.227 ± 0.0078	1.16 ± 0.048	0.0433 ± 0.0021	0.0397 ± 0.0021
CME SYNOVIAL	1.14 ± 0.094	0.998 ± 0.15	0.567 ± 0.12	0.328 ± 0.037	0.237 ± 0.023	0.215 ± 0.016	0.203 ± 0.013	0.284 ± 0.036	1.13 ± 0.18	1.22 ± 0.07	1.23 ± 0.081	1.2 ± 0.07	0.864 ± 0.053	0.25 ± 0.0067	0.168 ± 0.004	0.228 ± 0.012
OSHN BONE	1.04 ± 0.039	1.05 ± 0.059	1.05 ± 0.031	1.03 ± 0.028	0.299 ± 0.068	0.286 ± 0.062	0.0707 ± 0.0021	0.0503 ± 0.00058	1.08 ± 0.018	1.08 ± 0.022	1.114 ± 0.0095	1.08 ± 0.018	1.23 ± 0.035	0.382 ± 0.041	0.0357 ± 0.0055	0.0323 ± 0.0075
MCF7 BREAST	0.857 ± 0.038	0.868 ± 0.042	0.859 ± 0.053	0.7804 ± 0.0075	0.589 ± 0.032	0.469 ± 0.0095	0.0898 ± 0.0037	0.0774 ± 0.008	0.982 ± 0.083	0.973 ± 0.031	0.979 ± 0.032	0.865 ± 0.031	0.816 ± 0.038	0.167 ± 0.011	0.163 ± 0.024	0.157 ± 0.0056
CAL51 BREAST	0.903 ± 0.044	0.919 ± 0.026	0.872 ± 0.029	0.62 ± 0.055	0.112 ± 0.011	0.0608 ± 0.0036	0.0247 ± 0.00076	0.0238 ± 0.0015	1.02 ± 0.065	0.983 ± 0.092	1.02 ± 0.056	0.877 ± 0.092	0.528 ± 0.0091	0.0968 ± 0.014	0.0297 ± 0.00058	0.03133 ± 0.00029
SUM149.B1*.S BREAST	1.03 ± 0.031	1.065 ± 0.0083	1.01 ± 0.043	0.931 ± 0.041	0.285 ± 0.0081	0.179 ± 0.014	0.068 ± 0.0038	0.0518 ± 0.0023	1.1 ± 0.047	1.09 ± 0.024	1.08 ± 0.063	1.044 ± 0.0039	1 ± 0.037	0.459 ± 0.06	0.0462 ± 0.0049	0.0412 ± 0.0016
MDAMB134 BREAST	0.865 ± 0.0028	0.835 ± 0.098	1.03 ± 0.021	0.9 ± 0.098	0.734 ± 0.023	0.693 ± 0.085	0.106 ± 0.019	0.0295 ± 0.0035	1 ± 0.019	0.991 ± 0.041	1.09 ± 0.037	1.13 ± 0.088	1.52 ± 0.23	0.977 ± 0.15	0.303 ± 0.016	0.2765 ± 0.0021
YAMATO SYNOVIAL	1.1 ± 0.058	1.14 ± 0.058	0.963 ± 0.069	0.7417 ± 0.0035	0.388 ± 0.018	0.329 ± 0.03	0.258 ± 0.012	0.341 ± 0.016	1.12 ± 0.068	1.08 ± 0.053	1.25 ± 0.061	1.11 ± 0.11	0.682 ± 0.082	0.306 ± 0.023	0.26 ± 0.0092	0.29 ± 0.013
C33A CERVIX	0.842 ± 0.066	0.988 ± 0.068	0.779 ± 0.055	0.604 ± 0.045	0.122 ± 0.013	0.085 ± 0.0096	0.0347 ± 0.0086	0.04 ± 0.0079	0.991 ± 0.084	1.1 ± 0.041	1.12 ± 0.067	1.31 ± 0.13	0.923 ± 0.13	0.366 ± 0.011	0.028 ± 0.0027	0.0277 ± 0.0072
MDAMB453 BREAST	1.05 ± 0.045	1.04 ± 0.065	1.07 ± 0.017	1.08 ± 0.044	0.723 ± 0.065	0.395 ± 0.066	0.0503 ± 0.0055	0.0433 ± 0.0023	1.039 ± 0.0056	1.03 ± 0.071	1.1 ± 0.083	1.01 ± 0.02	0.586 ± 0.056	0.134 ± 0.022	0.085 ± 0.017	0.074 ± 0.025
VCAP PROSTATE	1.18 ± 0.094	0.982 ± 0.1	1.1 ± 0.073	0.51 ± 0.028	1.02 ± 0.052	0.291 ± 0.0036	0.0377 ± 0.0064	0.0397 ± 0.015	1.05 ± 0.085	1.02 ± 0.079	1.42 ± 0.065	1.52 ± 0.076	0.87 ± 0.058	0.324 ± 0.031	0.042 ± 0.01	0.051 ± 0.031
HOS BONE	1.009 ± 0.0046	1 ± 0.028	0.686 ± 0.0056	0.352 ± 0.1	0.087 ± 0.0053	0.043 ± 0.007	0.024	0.0283 ± 0.0015	1.02 ± 0.018	1.03 ± 0.011	1.034 ± 0.01	1.04 ± 0.019	0.9813 ± 0.0095	0.352 ± 0.02	0.0367 ± 0.0072	0.035 ± 0.003
VP229 BREAST	1.18 ± 0.067	1.11 ± 0.14	1 ± 0.11	0.931 ± 0.022	0.835 ± 0.11	0.567 ± 0.027	0.569 ± 0.13	0.233 ± 0.056	1.13 ± 0.17	1.11 ± 0.062	1.16 ± 0.073	0.957 ± 0.12	0.564 ± 0.095	0.211 ± 0.13	0.0273 ± 0.0031	0.0273 ± 0.004
HCT15 LARGE INTESTINE	1.01 ± 0.016	0.986 ± 0.044	1.01 ± 0.045	0.987 ± 0.02	0.486 ± 0.044	0.18 ± 0.018	0.0863 ± 0.005	0.066 ± 0.0027	1.06 ± 0.085	0.963 ± 0.12	0.991 ± 0.13	0.92 ± 0.12	0.45 ± 0.035	0.103 ± 0.013	0.0417 ± 0.0025	0.0417 ± 0.0015
HOSMNG BONE	0.976 ± 0.05	1.02 ± 0.032	0.983 ± 0.083	0.98 ± 0.07	0.549 ± 0.051	0.506 ± 0.025	0.165 ± 0.056	0.153 ± 0.037	0.977 ± 0.05	0.991 ± 0.049	1 ± 0.011	0.981 ± 0.024	1.01 ± 0.079	0.498 ± 0.021	0.059 ± 0.007	0.0577 ± 0.0065
HUO3N1 BONE	0.977 ± 0.053	1.02 ± 0.021	0.953 ± 0.052	0.857 ± 0.049	0.47 ± 0.016	0.311 ± 0.025	0.08133 ± 0.00058	0.0547 ± 0.00058	1.07 ± 0.016	1 ± 0.022	1.14 ± 0.033	1.12 ± 0.03	1.26 ± 0.052	0.929 ± 0.077	0.0483 ± 0.0011	0.039 ± 0.0061
KPD BONE	1.06 ± 0.057	0.963 ± 0.056	0.897 ± 0.075	0.909 ± 0.05	0.242 ± 0.048	0.116 ± 0.011	0.0297 ± 0.0031	0.0317 ± 0.0015	0.881 ± 0.31	1.01 ± 0.074	1.08 ± 0.048	0.997 ± 0.03	0.525 ± 0.035	0.101 ± 0.015	0.031 ± 0.0017	0.0277 ± 0.006
